In patent US5885994A, “Tetrahydroquinoxaline dopamine D4 receptor antagonists” (Warner-Lambert Company, priority 1998, dated 1999):

Tests used:
human DA D4.2 receptor = biological target: T1, human DA D4.2 receptor (Homo sapiens, UniProt P21917, DEL265-296); experiment: [3H]Thymidine uptake assay (block of quinpirole stimulation in CHO pro-5 cells transfected with human DA D4.2 receptor); type: cell-based; settings: human D4.2, quinpirole-stimulated uptake
T1 construct: expressed in transfected cells
T1 sequence (P21917 with tags, fused parts or gaps DEL265-296): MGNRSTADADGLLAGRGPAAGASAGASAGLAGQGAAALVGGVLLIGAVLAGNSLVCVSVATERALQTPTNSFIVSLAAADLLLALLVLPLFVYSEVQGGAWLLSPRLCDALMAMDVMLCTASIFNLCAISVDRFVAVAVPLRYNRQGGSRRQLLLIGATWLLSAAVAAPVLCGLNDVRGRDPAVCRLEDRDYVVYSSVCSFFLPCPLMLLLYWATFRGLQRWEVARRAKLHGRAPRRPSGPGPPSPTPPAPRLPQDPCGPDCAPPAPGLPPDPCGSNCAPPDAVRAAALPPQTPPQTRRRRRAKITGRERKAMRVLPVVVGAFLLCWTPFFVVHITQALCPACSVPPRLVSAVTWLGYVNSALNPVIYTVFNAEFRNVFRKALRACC
Description: Compounds were tested for their ability to bind to dopamine (DA) receptors as measured by their inhibition of [^3 H]spiperone binding to the human D2, and D4.2 receptors (Pugsley, et al., 1995). The ability of test compounds to block the stimulation of [^3 H]thymidine uptake in CHO pro-5 cells transfected with human DA D4.2 receptor cDNA caused by the DA agonist quinpirole was employed as an in vitro measure of DA receptor antagonist activity (Pugsley, et al., 1995). The effects of compounds on synthesis rates of rat brain catecholamines were estimated by measuring the accumulation of [3-(3,4-dihydroxyphenyl)-L-alanine (DOPA) after administration of the L-aromatic amino acid decarboxylase inhibitor, NSD 1015 (Pugsley, et al., 1995).
[^3 H]Thymidine Uptake Assay
The effects of test compounds on [^3 H]thymidine uptake were carried out essentially as described by Pugsley, et al., 1995. CHO p-5 cells transfected with human D4.2 cDNA were seeded into 96-well plates at a density of about 5000 cells/well and were grown at 37° C. in a minimum essential medium (aMEM, Gibco) with 10% calf serum for 2 days. The wells were then rinsed three times with serum-free media. Fresh media ([…]) was added along with […] of test compound in water or vehicle alone. Eight wells of each plate received […] of aMEM with 10% fetal calf serum. After culture for 16 to 17 hours, [3H]thymidine ([…]) was added for 4 hours. The cells were trypsinized and harvested onto filter mats with a 96-well Brandel cell harvester. The filters were counted in a Beta-Plate scintillation counter.

locomotor activity = experiment: Behavioral activity (locomotor activity) in the Omnitech Digiscan Animal Activity Monitors; type: in vivo, mice and rats
Description: PROTOCOL FOR THE BEHAVIORAL ACTIVITY ASSESSMENT OF MICE AND RATS IN THE OMNITECH DIGISCAN ANIMAL ACTIVITY MONITORS
The purpose of this test is to evaluate compounds for antipsychotic-like central nervous system (CNS) effects and a variety of other behavioral effects generally associated with CNS activity. […] Generally, however, drug effects on behavior are assessed using total distance traveled (in cm) as the most accurate measure of locomotor activity.
Male CD-1 albino mice weighing 20 to 40 g (Charles River Laboratories) or male Sprague-Dawley rats weighing 150 to 300 g (Harlan Laboratories) are used for these studies. […] Drug doses are expressed as the active moiety (taking into account the salt vs free base molecular weight of the drug). […]
Once the animal is placed in the activity chamber, the chambers are individually activated to begin collecting data. Activity levels are generally monitored with the overhead lights turned off, as the dark-stimulation tends to produce less variation in the data. […]
Data can be expressed as either actual counts, time (in sec), centimeters traveled, or percent inhibition of activity relative to vehicle-treated control animals tested concurrently. Significant changes in activity (i.e., cm traveled), relative to controls, are determined by t-test or analysis of variance and Newman-Keul's multiple-range test. […]

IC50 (human DA D4.2 receptor): 1.6 nM
SMILES: Cc1ccc(N2CCN(Cc3ccc4c(c3)NCCN4)CC2)cc1C [Example 2, 6-[4-(3,4-Dimethylphenyl)piperazin-1-ylmethyl]-1,2,3,4-tetrahydroquinoxaline]
Omnitech Digiscan Activity Monitor test (result in words) (locomotor activity; 1, 3, 10, 30 mg/kg IP): dose-dependent decrease | ED50 (locomotor activity; Mus musculus, ip): 16.5 mg/kg
